From article PMC7782499, “Progerinin, an optimized progerin-lamin A binding inhibitor, ameliorates premature senescence phenotypes of Hutchinson-Gilford progeria syndrome” (Communications Biology, 2021)

Key:
Lmna G609G/+ mouse = assay: Life span of Lmna G609G/+ mice; type: in vivo
Text: Fig. 3 In vivo favorable effect of SLC-D011. A Gross morphology of Lmna^G609G/G609G mice (10 weeks old) was ameliorated after injection with SLC-D011. At the same age, the experimental group (D011) of mice were larger than vehicle-injected control (Con) subjects regardless of gender. B, C SLC-D011 increases body weight B and extends life span C of Lmna^G609G/G609G progeria model mouse (Con: n = 8; SLC-D011: n = 8). Compared with 14.8 weeks of average (ave) life span with maximum (max) life span of 15.5 weeks, 20 mg/kg of intraperitoneal (i.p) injection (twice a week) of SLC-D011 could extend the life span upto 19 weeks (max = 21 weeks). Lmna^G609G/G609G mice were injected with SLC-D011 from age of 5-week old, *p < 0.05. D Gross morphology of SLC-D011 injected Lmna^G609G/+ mouse. […] E SLC-D011 increases body weights of Lmna^G609G/+ mice (Con: n = 10; SLC-D011: n = 11), *p < 0.05. F Favorable effect of SLC-D011 on life span of Lmna^G609G/+ mice. Compared with vehicle-injected control group (ave = 46.7 weeks and max = 48 weeks), SLC-D011 treatment obviously extended the average life span to 63 weeks (max = 64 weeks). The injection was started from 32 weeks old, **p < 0.001. “Con” means vehicle (a solvent composed of DMSO and PBS)-injected mouse group. TEXT PRINTED IN THE PICTURE: (C) D011: Kaplan-Meier survival curve in Lmna^G609G/G609G: Ave=19; Kaplan-Meier survival curve in Lmna^G609G/G609G: Max=21 | (F) D011: Kaplan-Meier survival curve in Lmna^G609G/+: Ave=63; Kaplan-Meier survival curve in Lmna^G609G/+: Max=64 DOUBTS OF THE COPYIST ABOUT THIS PICTURE: Panels C and F: the Ave/Max labels are not printed with a group name. They are assigned to D011 (solid curve) or Con (dashed curve) only by their position beside the curves. / Panel C Ave=14.8, Max=15.5 and panel F Ave=46.7, Max=48 stand beside the dashed Con curve. They are left out because Con is the control group, not a substance. / No unit is printed with the Ave/Max values. Only the axis reads Age (weeks).
Animal experiments were performed in a facility certified by the Association for Assessment and Accreditation of Laboratory Animal Care in compliance with animal policies approved by Pusan National University. The mouse work was performed under the study protocol PNU-2019-2181, as approved by the Institutional Animal Care and Use Committee. Lmna^G609G/609G mice were generated by timed mating of heterozygous Lmna^G609G/+ provided by Carlos López-Otín (Universidad de Oviedo, Asturias, Oviedo, Spain). SLC-D011 was mixed with dimethyl sulfoxide (DMSO) and phosphate-buffered saline (PBS). It was then intraperitoneally injected into mice (20 mg/kg twice per week from 5-week-old). SLC-D011 and lonafarnib were orally administrated to mice daily at a concentration of 10 mg/ml in monoolein-based solution. Lonafarnib was generously provided by Merck, the Progeria Research Foundation (PRF) and the PRF Lonafarnib Pre-clinical Drug Supply Program. Control mice were treated with monoolein-based solution alone in the same way. Lmna^G609G/609G mice were treated with clear chemical solution throughout the life span, starting from 5 weeks of age. Lmna^G609G/+ mice were treated via intraperitoneal and oral administrations, starting from 32 weeks of age.
Fig. S10. Or al administration of SLC-D011 suppresses premature aging features of LmnaG609G/+ mi c e . A.
Gross morphology of SLC-D011 treated Lmna G609G/+ mice at 36 weeks old. […]

HGPS cells = assay: SA-β-gal staining senescence assay in HGPS cells; type: cell-based, human
Text: Fig. S3. Chemical screening with JH4 derivatives (a total of 53 chemicals except JH010 and SLC -D011 were used). A. Summarized tables for effects of JH4 derivatives. ‘+’ means s t re ngt h of binding affinity or expression level after treatment of chemicals. Middle columns of tables show binding affinity between progerin and lamin A. Third columns of tables show level of progerin expression. […]
severe cytotoxicity (cell death or none). B , C, and D. Examples of screening based on pull-down assay. All chemicals were tested using GST pull-down assay. […]
inhibition activity than JH4. E. Generation of J H4 derivatives. To prevent rapid digestion in vivo, side chain was replaced by amide bond (J H010) or ether bond (SLC-D011).
H3K9me3 levels after treatment with J H010 and D011 in HGPS cells (n = 3 independent experiments; two- […]
with J H4, JH010, and SLC-D011 in HGPS cells (n = 3 independent experiments; two- tailed Student’s t- […]
fibroblasts from normal person and patients with HGPS (n = 3 independent experiments; two- tailed Student’s t -test), **p < 0.001, *p< 0.05. I. Transcriptional levels of progerin are not affected by treatment with SLC-D011. Total RNA was extracted after treatment with SLC-D011 for 7 days. The PCR products correspond to wild- type prelamin A and progerin transcripts. […]

HGPS patients = details: trial without placebo; cited from earlier work

Compound	Average life span (Lmna G609G/+ mouse; i.p. injection from 32 weeks old) [weeks]	Extension of life span (Lmna G609G/+ mouse; i.p. injection, longer than control (untreated))	Maximum life span (Lmna G609G/+ mouse; oral 50 mg/kg daily) [weeks]	Average life span (Lmna G609G/+ mouse; oral 50 mg/kg daily, 50 mg/kg) [weeks]	Average life span (Lmna G609G/+ mouse; oral 50 mg/kg daily, listed as progerinin, 50 mg/kg) [weeks]	Cellular senescence (SA-β-gal staining) (HGPS cells)	Extension of life span (HGPS patients)
CC1(C)Oc2cc3oc(=O)ccc3cc2C[C@@H]1OC/C=C/c1ccccc1 [SLC-D011]	63	~ 16 weeks	65.5	64.9	65	could block cellular senescence	
NC(=O)N1CCC(CC(=O)N2CCC([C@H]3c4ncc(Br)cc4CCc4cc(Cl)cc(Br)c43)CC2)CC1 [lonafarnib, reference compound]							~ 2 years
